From the CheMixHub viscosity set
Where “and” joins values, the source holds several entries; their conditions need not be identical. Equal entries are not always repeated. ± gives the uncertainty stated by the source.

Tests used:
[1] = xn = mol fraction of the nth substance listed; conditions: 101 kPa

CC(=O)CC(C)C
viscosity (293.15 K, 100 kPa): 0.59 ± 0.05 mPa·s
viscosity (293.15 K, 101 kPa): 0.575 mPa·s
viscosity (293.15 K, 101.32 kPa): 0.5848 ± 0.0071 mPa·s
viscosity (293.15 K, 101.33 kPa): 0.5848 ± 0.0071 mPa·s and 0.586 ± 0.006 mPa·s
viscosity (298.15 K, 101 kPa): 0.543 mPa·s and 0.54 ± 0.017 mPa·s and 0.543 ± 0.007 mPa·s
viscosity (298.15 K, 101.3 kPa): 0.543 ± 0.015 mPa·s
viscosity (298.15 K, 101.32 kPa): 0.5463 ± 0.0066 mPa·s
viscosity (298.15 K, 101.33 kPa): 0.5463 ± 0.0066 mPa·s and 0.542 ± 0.007 mPa·s
viscosity (303.15 K, 100 kPa): 0.53 ± 0.04 mPa·s
viscosity (303.15 K, 101.3 kPa): 0.519 ± 0.014 mPa·s
viscosity (303.15 K, 101.33 kPa): 0.52 ± 0.005 mPa·s
viscosity (308.15 K, 101 kPa): 0.494 mPa·s and 0.476 ± 0.016 mPa·s and 0.456 ± 0.021 mPa·s
viscosity (308.15 K, 101.32 kPa): 0.4871 ± 0.006 mPa·s
viscosity (308.15 K, 101.33 kPa): 0.4871 ± 0.0059 mPa·s and 0.505 ± 0.007 mPa·s
viscosity (313.15 K, 100 kPa): 0.47 ± 0.04 mPa·s
viscosity (313.15 K, 101 kPa): 0.443 ± 0.1 mPa·s
viscosity (313.15 K, 101.3 kPa): 0.467 ± 0.013 mPa·s
viscosity (318.15 K, 101.33 kPa): 0.447 ± 0.006 mPa·s
viscosity (323.15 K, 100 kPa): 0.42 ± 0.03 mPa·s
viscosity (323.15 K, 101 kPa): 0.401 ± 0.1 mPa·s

CC(C)CC(=O)CC(C)C
viscosity (293.15 K, 100 kPa): 0.95 ± 0.03 mPa·s
viscosity (298.15 K, 100 kPa): 0.905 ± 0.028 mPa·s
viscosity (303.15 K, 100 kPa): 0.86 ± 0.03 mPa·s
viscosity (308.15 K, 100 kPa): 0.81 ± 0.03 mPa·s
viscosity (313.15 K, 100 kPa): 0.76 ± 0.02 mPa·s
viscosity (318.15 K, 100 kPa): 0.72 ± 0.02 mPa·s
viscosity (323.15 K, 100 kPa): 0.67 ± 0.02 mPa·s

CC(C)CC(C)(C)C
viscosity (293.15 K, 101 kPa): 0.498 ± 0.013 mPa·s
viscosity (298.15 K, 100 kPa): 0.492 ± 0.01 mPa·s
viscosity (298.15 K, 101.33 kPa): 0.462 ± 0.013 mPa·s and 0.492 ± 0.004 mPa·s and 0.4842 ± 0.0045 mPa·s
viscosity (303.15 K, 101 kPa): 0.451 ± 0.01 mPa·s and 0.445 ± 0.0047 mPa·s
viscosity (308.15 K, 100 kPa): 0.45 ± 0.01 mPa·s
viscosity (308.15 K, 101 kPa): 0.428 ± 0.009 mPa·s and 0.427 ± 0.008 mPa·s
viscosity (308.15 K, 101.33 kPa): 0.412 ± 0.012 mPa·s and 0.441 ± 0.003 mPa·s
viscosity (313.15 K, 100 kPa): 0.431 ± 0.009 mPa·s
viscosity (313.15 K, 101.33 kPa): 0.391 ± 0.012 mPa·s and 0.4056 ± 0.0043 mPa·s
viscosity (318.15 K, 101 kPa): 0.378 ± 0.008 mPa·s
viscosity (318.15 K, 101.33 kPa): 0.381 ± 0.011 mPa·s and 0.3848 ± 0.0042 mPa·s
viscosity (323.15 K, 101 kPa): 0.364 ± 0.008 mPa·s and 0.3593 ± 0.0043 mPa·s

CC=Cc1ccc2c(c1)OCO2
viscosity (298.15 K, 101 kPa): 3.981 ± 0.048 mPa·s

CCC(C)N (stereo not drawn)
viscosity (298.15 K, 101.33 kPa): 0.4176 ± 0.0038 mPa·s
viscosity (303.15 K, 101 kPa): 0.4024 ± 0.0036 mPa·s
viscosity (303.15 K, 101.33 kPa): 0.3884 ± 0.0036 mPa·s
viscosity (308.15 K, 101 kPa): 0.3996 ± 0.041 mPa·s and 0.3996 ± 0.0055 mPa·s
viscosity (308.15 K, 101.33 kPa): 0.3659 ± 0.0035 mPa·s
viscosity (313.15 K, 101.33 kPa): 0.3465 ± 0.0033 mPa·s
viscosity (318.15 K, 101.33 kPa): 0.3274 ± 0.0032 mPa·s
viscosity (323.15 K, 101.33 kPa): 0.3104 ± 0.0031 mPa·s

CCC12CC3CC(CC(C3)C1)C2
viscosity (293.15 K, 100 kPa): 6.43 ± 0.26 mPa·s
viscosity (298.15 K, 100 kPa): 5.606 ± 0.23 mPa·s
viscosity (303.15 K, 100 kPa): 4.931 ± 0.2 mPa·s
viscosity (308.15 K, 100 kPa): 4.365 ± 0.18 mPa·s
viscosity (313.15 K, 100 kPa): 3.887 ± 0.16 mPa·s

CCCC(=O)[O-].CC[NH+](CC)CCO
viscosity (293.15 K, 101 kPa): 71.57 ± 1.6 mPa·s
viscosity (298.15 K, 101 kPa): 53.96 ± 1.1 mPa·s
viscosity (303.15 K, 101 kPa): 41.42 ± 0.89 mPa·s
viscosity (308.15 K, 101 kPa): 32.34 ± 0.69 mPa·s
viscosity (313.15 K, 101 kPa): 25.64 ± 0.55 mPa·s
viscosity (318.15 K, 101 kPa): 20.63 ± 0.44 mPa·s
viscosity (323.15 K, 101 kPa): 16.82 ± 0.36 mPa·s

CCCCCC(=O)O
viscosity (298.15 K, 101 kPa): 2.814 ± 0.073 mPa·s
viscosity (323.15 K, 101.33 kPa): 1.762 ± 0.022 mPa·s

CCCCCCCCCCCCCC[P+](CCCCCC)(CCCCCC)CCCCCC.c1nnc[n-]1
viscosity (293.15 K, 100 kPa): 1320 ± 90 mPa·s
viscosity (298.15 K, 100 kPa): 918 ± 56 mPa·s
viscosity (303.15 K, 100 kPa): 654 ± 35 mPa·s
viscosity (308.15 K, 100 kPa): 477 ± 23 mPa·s
viscosity (313.15 K, 100 kPa): 354 ± 15 mPa·s
viscosity (318.15 K, 100 kPa): 269 ± 10 mPa·s
viscosity (323.15 K, 100 kPa): 209 ± 7 mPa·s

CCCCCCO
viscosity (293.15 K, 100 kPa): 5.36 ± 0.97 mPa·s and 5.363 ± 0.063 mPa·s and 5.273 ± 0.061 mPa·s
viscosity (293.15 K, 101 kPa): 4.963 ± 0.03 mPa·s
viscosity (293.15 K, 101.3 kPa): 5.361 ± 0.12 mPa·s
viscosity (293.15 K, 101.33 kPa): 4.993 ± 0.061 mPa·s
viscosity (298 K, 100 kPa): 4.502 ± 0.07 mPa·s
viscosity (298.15 K, 100 kPa): 4.45 ± 0.8 mPa·s
viscosity (298.15 K, 101.3 kPa): 4.342 ± 0.052 mPa·s and 4.403 ± 0.1 mPa·s
viscosity (303 K, 101.33 kPa): 3.82 ± 0.05 mPa·s
viscosity (303.15 K, 100 kPa): 3.883 ± 0.11 mPa·s
viscosity (303.15 K, 101.3 kPa): 3.69 ± 0.045 mPa·s
viscosity (308 K, 101.33 kPa): 3.3 ± 0.05 mPa·s
viscosity (308.15 K, 101.3 kPa): 3.139 ± 0.038 mPa·s and 3.604 ± 0.084 mPa·s
viscosity (313 K, 101 kPa): 2.903 ± 0.076 mPa·s
viscosity (313 K, 101.33 kPa): 2.87 ± 0.04 mPa·s and 2.82 ± 0.069 mPa·s
viscosity (313.15 K, 100 kPa): 2.9 ± 0.52 mPa·s and 2.896 ± 0.034 mPa·s
viscosity (313.15 K, 101 kPa): 2.86 ± 0.089 mPa·s and 3.451 ± 0.69 mPa·s and 2.934 ± 0.024 mPa·s
viscosity (318.15 K, 100 kPa): 2.571 ± 0.03 mPa·s and 2.656 ± 0.074 mPa·s
viscosity (318.15 K, 101 kPa): 2.397 ± 0.24 mPa·s and 2.656 ± 0.092 mPa·s
viscosity (318.15 K, 101.3 kPa): 2.655 ± 0.066 mPa·s
viscosity (318.15 K, 101.33 kPa): 2.601 ± 0.11 mPa·s
viscosity (323 K, 101.33 kPa): 2.183 ± 0.047 mPa·s
viscosity (323.15 K, 100 kPa): 2.2 ± 0.4 mPa·s
viscosity (323.15 K, 101 kPa): 2.072 ± 0.067 mPa·s
viscosity (323.15 K, 101.33 kPa): 2.267 ± 0.093 mPa·s

CCCC[n+]1ccccc1.F[B-](F)(F)F
viscosity (293.15 K, 101.3 kPa): 223 ± 45 mPa·s and 223.1 ± 13 mPa·s
viscosity (298.15 K, 101.3 kPa): 163 ± 33 mPa·s and 163.3 ± 7.9 mPa·s
viscosity (303.15 K, 101.3 kPa): 121 ± 24 mPa·s and 123 ± 5 mPa·s
viscosity (308.15 K, 101.3 kPa): 92.8 ± 19 mPa·s and 94.21 ± 3.3 mPa·s
viscosity (313.15 K, 101.3 kPa): 72.3 ± 14 mPa·s and 70.29 ± 2.1 mPa·s
viscosity (318.15 K, 101.3 kPa): 57.4 ± 12 mPa·s and 55.81 ± 1.6 mPa·s
viscosity (323.15 K, 101.3 kPa): 46.3 ± 9.3 mPa·s and 45.12 ± 1.4 mPa·s

CCOCC
viscosity (293.15 K, 101 kPa): 0.239 ± 0.006 mPa·s
viscosity (293.15 K, 101.33 kPa): 0.25 ± 0.007 mPa·s
viscosity (298.15 K, 101.33 kPa): 0.225 ± 0.0016 mPa·s
viscosity (303.15 K, 101 kPa): 0.212 ± 0.006 mPa·s
viscosity (303.16 K, 101 kPa): 0.2193 ± 0.041 mPa·s and 0.2193 ± 0.081 mPa·s

CCS
viscosity (298.15 K, 101 kPa): 0.2091 ± 0.0019 mPa·s

O=C(OCc1ccccc1)c1ccccc1O
viscosity (303.15 K, 101 kPa): 6.722 ± 0.075 mPa·s

O=C1CCCCC1
viscosity (293.15 K, 101.3 kPa): 2.546 ± 0.029 mPa·s
viscosity (293.15 K, 101.33 kPa): 2.315 ± 1 mPa·s
viscosity (298.15 K, 101.3 kPa): 1.963 ± 0.025 mPa·s
viscosity (303.15 K, 101.3 kPa): 1.768 ± 0.022 mPa·s and 1.915 ± 0.022 mPa·s
viscosity (308.15 K, 101 kPa): 1.631 ± 0.021 mPa·s and 1.632 ± 0.038 mPa·s and 1.632 ± 0.077 mPa·s
viscosity (308.15 K, 101.3 kPa): 1.602 ± 0.02 mPa·s and 1.585 ± 0.025 mPa·s
viscosity (313.15 K, 100 kPa): 1.481 ± 0.1 mPa·s
viscosity (313.15 K, 101 kPa): 1.476 ± 0.016 mPa·s and 1.476 ± 0.019 mPa·s and 1.481 ± 0.07 mPa·s
viscosity (318.15 K, 100 kPa): 1.285 ± 0.1 mPa·s
viscosity (318.15 K, 101 kPa): 1.285 ± 0.062 mPa·s and 1.373 ± 0.032 mPa·s and 1.373 ± 0.066 mPa·s
viscosity (318.15 K, 101.33 kPa): 1.311 ± 0.017 mPa·s

OCCOc1ccccc1
viscosity (303.15 K, 101 kPa): 12.86 ± 0.33 mPa·s
viscosity (313.15 K, 101 kPa): 9.235 ± 0.25 mPa·s
viscosity (323.15 K, 101 kPa): 5.927 ± 0.18 mPa·s

CC(C)CC(C)(C)C + c1ccccc1
viscosity ([1]; 308.15 K, x1 = 0.0565): 0.5093 ± 0.0049 mPa·s
viscosity ([1]; 308.15 K, x1 = 0.1062): 0.4873 ± 0.0047 mPa·s
viscosity ([1]; 308.15 K, x1 = 0.1666): 0.4676 ± 0.0046 mPa·s
viscosity ([1]; 308.15 K, x1 = 0.2409): 0.4496 ± 0.0044 mPa·s
viscosity ([1]; 308.15 K, x1 = 0.3214): 0.436 ± 0.0044 mPa·s
viscosity ([1]; 308.15 K, x1 = 0.412): 0.4255 ± 0.0043 mPa·s
viscosity ([1]; 308.15 K, x1 = 0.5227): 0.4188 ± 0.0043 mPa·s
viscosity ([1]; 308.15 K, x1 = 0.6688): 0.4174 ± 0.0043 mPa·s
viscosity ([1]; 308.15 K, x1 = 0.8154): 0.423 ± 0.0045 mPa·s

CCCCCC(=O)O + c1ccccc1
viscosity ([1]; 298.15 K, x1 = 0.03): 0.626 ± 0.017 mPa·s
viscosity ([1]; 298.15 K, x1 = 0.07): 0.653 ± 0.017 mPa·s
viscosity ([1]; 298.15 K, x1 = 0.11): 0.684 ± 0.018 mPa·s
viscosity ([1]; 298.15 K, x1 = 0.14): 0.718 ± 0.019 mPa·s
viscosity ([1]; 298.15 K, x1 = 0.31): 0.908 ± 0.024 mPa·s
viscosity ([1]; 298.15 K, x1 = 0.4): 1.058 ± 0.028 mPa·s
viscosity ([1]; 298.15 K, x1 = 0.5): 1.284 ± 0.034 mPa·s
viscosity ([1]; 298.15 K, x1 = 0.73): 1.844 ± 0.048 mPa·s
